Reference: ChEMBL document CHEMBL3885881, “DrugMatrix”

Species: Rattus norvegicus
Test: DrugMatrix - Regimen: Daily Repeat
Assay type: toxicity, organism-based, Sprague-Dawley
Set-up: regimen Daily Repeat, gender Male, age 6-8 weeks
Settings: in vivo, po, route oral GAVAGE, […]; for ABSOLUTE BASOPHIL / ABSOLUTE EOSINOPHIL / ABSOLUTE LYMPHOCYTE / ABSOLUTE MONOCYTE / ABSOLUTE SEGMENTED NEUTROPHIL / BASOPHIL / EOSINOPHIL / ERYTHROCYTE COUNT / HEMATOCRIT / HEMOGLOBIN / LEUKOCYTE COUNT / LYMPHOCYTE / MEAN CORPUSCULAR HEMOGLOBIN / MEAN CORPUSCULAR HEMOGLOBIN CONCENTRATION / MEAN CORPUSCULAR VOLUME / MONOCYTE / NEUTROPHIL / NUCLEATED RED BLOOD CELLS / PLATELET COUNT: tissue Blood; for ALANINE AMINOTRANSFERASE / ALBUMIN / ALKALINE PHOSPHATASE / ASPARTATE AMINOTRANSFERASE / BLOOD UREA NITROGEN / CARBON DIOXIDE / CHLORIDE / CHOLESTEROL / CREATINE PHOSPHOKINASE / CREATININE / GLUCOSE / LACTATE DEHYDROGENASE / LIPASE / PHOSPHORUS / POTASSIUM / SODIUM / TOTAL BILIRUBIN / TOTAL PROTEIN / URIC ACID: tissue Plasma
[1] = 0 mg/kg, 72 h, dose level Control, time 3 day
[2] = 0 mg/kg, 120 h, dose level Control, time 5 day
[3] = 0.05 mg/kg, 72 h, dose level Low, time 3 day

In the case of COCc1c(C(C)C)nc(C(C)C)c(/C=C/[C@@H](O)C[C@@H](O)CC(=O)O)c1-c1ccc(F)cc1 [CERIVASTATIN], the “ABSOLUTE BASOPHIL” value [1] is reported as 0 CELLS/uL, the “ABSOLUTE EOSINOPHIL” value [1] is reported as 0 CELLS/uL and the “ABSOLUTE LYMPHOCYTE” value [1] is reported as 11091.17 CELLS/uL. The “ABSOLUTE MONOCYTE” value [1] was 172.17 CELLS/uL, the “ABSOLUTE SEGMENTED NEUTROPHIL” value [1] was 1186.67 CELLS/uL and the BASOPHIL [1] was 0%. The EOSINOPHIL [1] was 0%, the “ERYTHROCYTE COUNT” value [1] was 5.87 x10E6/uL and the HEMATOCRIT [1] was 36.87%. For the same molecule, the HEMOGLOBIN [1] was 14.03 G/DL, the “LEUKOCYTE COUNT” value [1] was 12.45 x10E3/uL and the LYMPHOCYTE [1] was 88.67%. For the same molecule, the “MEAN CORPUSCULAR HEMOGLOBIN” value [1] was 23.93 pg, the “MEAN CORPUSCULAR HEMOGLOBIN CONCENTRATION” value [1] was 38.1 G/DL and the “MEAN CORPUSCULAR VOLUME” value [1] was 62.73 fL. For the same molecule, the MONOCYTE [1] was 1.5%, the NEUTROPHIL [1] was 9.83% and the “NUCLEATED RED BLOOD CELLS” value [1] was 0 /100WBC. For the same molecule, the “PLATELET COUNT” value [1] was 1150.33 x10E3/uL, the “ALANINE AMINOTRANSFERASE” value [1] was 67.17 u/L and the ALBUMIN [1] was 4.03 G/DL. For the same molecule, the “ALKALINE PHOSPHATASE” value [1] was 462.5 u/L, the “ASPARTATE AMINOTRANSFERASE” value [1] was 88 u/L and the “BLOOD UREA NITROGEN” value [1] was 13.17 mg/dL. For the same molecule, the “CARBON DIOXIDE” value [1] was 29.33 mmol/L, the CHLORIDE [1] was 101 MEQ/L and the CHOLESTEROL [1] was 69.17 mg/dL. For the same molecule, the “CREATINE PHOSPHOKINASE” value [1] was 292.5 u/L, the CREATININE [1] was 0.17 mg/dL and the GLUCOSE [1] was 167.5 mg/dL. For the same molecule, the “LACTATE DEHYDROGENASE” value [1] was 198.5 u/L, the LIPASE [1] was 10.67 u/L and the PHOSPHORUS [1] was 11.73 mg/dL. The POTASSIUM [1] was 5.91 MEQ/L, the SODIUM [1] was 143.3 MEQ/L and the “TOTAL BILIRUBIN” value [1] was 0.18 mg/dL. For the same molecule, the “TOTAL PROTEIN” value [1] was 5.7 G/DL, the “URIC ACID” value [1] was 1.3 mg/dL and the “ABSOLUTE BASOPHIL” value [2] was 0 CELLS/uL. The “ABSOLUTE EOSINOPHIL” value [2] was 64.33 CELLS/uL, the “ABSOLUTE LYMPHOCYTE” value [2] was 12494.67 CELLS/uL and the “ABSOLUTE MONOCYTE” value [2] was 117 CELLS/uL. The “ABSOLUTE SEGMENTED NEUTROPHIL” value [2] was 1340.67 CELLS/uL, the BASOPHIL [2] was 0% and the EOSINOPHIL [2] was 0.33%. The “ERYTHROCYTE COUNT” value [2] was 5.82 x10E6/uL, the HEMATOCRIT [2] was 36.97% and the HEMOGLOBIN [2] was 14.18 G/DL. The “LEUKOCYTE COUNT” value [2] was 14.02 x10E3/uL, the LYMPHOCYTE [2] was 89% and the “MEAN CORPUSCULAR HEMOGLOBIN” value [2] was 24.42 pg. The “MEAN CORPUSCULAR HEMOGLOBIN CONCENTRATION” value [2] was 38.4 G/DL, the “MEAN CORPUSCULAR VOLUME” value [2] was 63.52 fL and the MONOCYTE [2] was 0.83%. For the same molecule, the NEUTROPHIL [2] was 9.83%, the “NUCLEATED RED BLOOD CELLS” value [2] was 0 /100WBC and the “PLATELET COUNT” value [2] was 1097.83 x10E3/uL. The “ALANINE AMINOTRANSFERASE” value [2] was 58.83 u/L, the ALBUMIN [2] was 3.92 G/DL and the “ALKALINE PHOSPHATASE” value [2] was 414.17 u/L. For the same molecule, the “ASPARTATE AMINOTRANSFERASE” value [2] was 89.17 u/L, the “BLOOD UREA NITROGEN” value [2] was 16.83 mg/dL and the “CARBON DIOXIDE” value [2] was 29.17 mmol/L. The CHLORIDE [2] was 100.33 MEQ/L, the CHOLESTEROL [2] was 54.5 mg/dL and the “CREATINE PHOSPHOKINASE” value [2] was 386.17 u/L. For the same molecule, the CREATININE [2] was 0.23 mg/dL, the GLUCOSE [2] was 184.17 mg/dL and the “LACTATE DEHYDROGENASE” value [2] was 229.17 u/L. The LIPASE [2] was 10.83 u/L, the PHOSPHORUS [2] was 10.88 mg/dL and the POTASSIUM [2] was 5.97 MEQ/L. The SODIUM [2] was 142.2 MEQ/L, the “TOTAL BILIRUBIN” value [2] was 0.12 mg/dL and the “TOTAL PROTEIN” value [2] was 5.63 G/DL. The “URIC ACID” value [2] was 1.55 mg/dL, the “ABSOLUTE BASOPHIL” value [3] was 0 CELLS/uL and the “ABSOLUTE EOSINOPHIL” value [3] was 0 CELLS/uL. For the same molecule, the “ABSOLUTE LYMPHOCYTE” value [3] was 11310.33 CELLS/uL, the “ABSOLUTE MONOCYTE” value [3] was 175.33 CELLS/uL and the “ABSOLUTE SEGMENTED NEUTROPHIL” value [3] was 1347.67 CELLS/uL. For the same molecule, the BASOPHIL [3] was 0%, the EOSINOPHIL [3] was 0% and the “ERYTHROCYTE COUNT” value [3] was 5.68 x10E6/uL. The HEMATOCRIT [3] was 35.3%, the HEMOGLOBIN [3] was 13.6 G/DL and the “LEUKOCYTE COUNT” value [3] was 12.83 x10E3/uL. The LYMPHOCYTE [3] was 88.33%, the “MEAN CORPUSCULAR HEMOGLOBIN” value [3] was 23.97 pg and the “MEAN CORPUSCULAR HEMOGLOBIN CONCENTRATION” value [3] was 38.53 G/DL. The “MEAN CORPUSCULAR VOLUME” value [3] was 62.17 fL, the MONOCYTE [3] was 1.33% and the NEUTROPHIL [3] was 10.33%. For the same molecule, the “NUCLEATED RED BLOOD CELLS” value [3] was 0 /100WBC, the “PLATELET COUNT” value [3] was 1230 x10E3/uL and the “ALANINE AMINOTRANSFERASE” value [3] was 65 u/L. The ALBUMIN [3] was 4.07 G/DL, the “ALKALINE PHOSPHATASE” value [3] was 429 u/L and the “ASPARTATE AMINOTRANSFERASE” value [3] was 96.67 u/L. The “BLOOD UREA NITROGEN” value [3] was 15.67 mg/dL, the “CARBON DIOXIDE” value [3] was 25 mmol/L and the CHLORIDE [3] was 103 MEQ/L. The CHOLESTEROL [3] was 64 mg/dL, the “CREATINE PHOSPHOKINASE” value [3] was 269.33 u/L and the CREATININE [3] was 0.13 mg/dL. For the same molecule, the GLUCOSE [3] was 169.67 mg/dL, the “LACTATE DEHYDROGENASE” value [3] was 270.33 u/L and the LIPASE [3] was 10 u/L. For the same molecule, the PHOSPHORUS [3] was 12.17 mg/dL, the POTASSIUM [3] was 6.2 MEQ/L and the SODIUM [3] was 144.27 MEQ/L. For the same molecule, the “TOTAL BILIRUBIN” value [3] was 0.13 mg/dL, the “TOTAL PROTEIN” value [3] was 5.63 G/DL and the “URIC ACID” value [3] was 1.9 mg/dL.
